Publication PMC11591356, “Immunomodulatory Effects of the Tobacco Defensin NaD1” (Antibiotics, 2024)
Ends that are not written are not given here.

How the values were obtained:
primary monocytes = assay: Multiplex xMAP assessment of cytokine production by primary monocytes; assay type: cell-based, human; conditions: monocytes + 2 μM NaD1, 24 h
Text: (§1) Peripheral blood mononuclear cells (PBMCs) from healthy donors were purchased from American Type Culture Collection (ATCC PCS-800-011). Primary monocytes were isolated from PBMCs by adherence to the plastic surface. For that, PBMCs were thawed, resuspended in RPMI-1640 culture medium (Corning, Corning, NY, USA) without serum at a concentration of 2 × 10^6 cells/mL, seeded into the wells of a 24-well plate and placed in a humidified CO2-intubator (CellXpert C170i, Eppendorf, Hamburg, Germany) for 1 h. After that, non-adherent cells were removed from the wells and attached monocytes were thoroughly washed with PBS and cultured in a CO2-intubator in complete RPMI-1640 containing 10% human serum (HS Type AB, Capricorn Scientific, Ebsdorfergrund, Germany) and 1×antibiotic-antimycotic (1×AA) solution (Sigma, St. Louis, MO, USA).
For the study of the immunomodulatory properties of NaD1, monocytes and immature dendritic cells (moDC) were seeded into the wells of a 24-well plate at densities of 4 × 10^5 and 1.3 × 10^5 cells per well, respectively, in complete RPMI-1640 with 10% HS and AA solution. Then, 24 h later, the culture medium was replaced by a fresh one either with 2 μM NaD1 for stimulation of the cells or without if for the control wells. The cultures were kept in a humidified CO2-intubator for 24 h and then the samples of the culture media were taken and frozen.
The absolute levels of 48 cytokines, chemokines and growth factors were determined at a protein level by multiplex xMAP technology (Luminex, Austin, TX, USA). For this, a MILLIPLEX Human Panel A kit (HCYTA-60K-PX48, Merck, Darmstadt, Germany) was used and the following 48 analytes were evaluated in two biological replications: sCD40L, EGF, CCL11/Eotaxin-1, FGF-basic/FGF-2, Flt-3 ligand, CX3CL1/Fractalkine, G-CSF, GM-CSF, GROα, IFNα2, IFN-γ, IL-1α, IL-1β, IL-1RA, IL-2, IL-3, IL-4, IL-5, IL-6, IL-7, CXCL8/IL-8, IL-9, IL-10, IL-12(p40), IL-12(p70), IL-13, IL-15, IL-17A/CTLA8, IL-17E/IL-25, IL-17F, IL-18, IL-22, IL-27, CXCL10/IP-10, CCL2/MCP-1, CCL7/MCP-3, M-CSF, CCL22/MDC, CXCL9/MIG, CCL3/MIP-1α, CCL4/MIP-1β, PDGF-AA, PDGF-AB/BB, CCL5/RANTES, TGF-α, TNF-α, TNF-β and VEGF-A. The fluorescent data were obtained on a MAGPIX system (Merck) operated with xPONENT 4.2 software (Merck). Final analysis was performed in MILLIPLEX Analyst v5.1 software (Merck).

PBMCs = assay: Cytotoxicity assay, resazurin method, PBMCs; assay type: cell-based, human; conditions: for Cell viability: PBMCs, 24 h, resazurin
Text: as §1
The cytotoxic effects of the tobacco defensin NaD1 towards PBMCs or Caco-2 cells were investigated in 96-well plates using the resazurin method as previously described. In brief, 4 × 10^5 per well Caco-2 cells not in a monolayer as well as Caco-2 cells in a monolayer in DMEM/F12 (1:1) medium with 10% FBS or 2 × 10^6 PBMCs per well in RPMI-1640 also with 10% FBS were incubated with serial dilutions of NaD1 at final concentrations from 0.39 to 50 μM or from 2.1 to 180 μM for 24 h. After that, resazurin (Sigma, St. Louis, MO, USA) was added at a final concentration of 70 µM and the plates were incubated overnight (16–18 h). Untreated cells and cells treated by non-ionogenic detergent Triton X-100 were used as negative and positive controls, respectively. […] The cell viability was estimated by resorufin fluorescence registered at […] via the following equation: cell viability (%) = (Fsample/Fcontrol) × 100%. Experiment was carried out twice in duplicate.

NaD1: Recombinant tobacco floral defensin NaD1 (UNIPROT Q8GTM0), obtained by heterologous expression in E. coli; FITC-labeled in the permeability assay (RECKTESNTFPGICITKPPCRKACISEKFTDGHCSKILRRCLCTKPC; cysteine pairing not given here; also: FITC label; UniProt Q8GTM0 26-72, looked up)
IL-2 absolute level (primary monocytes; control 0.36): 0.51 pg/mL
TGF-a absolute level (primary monocytes; control 0.73): 0.73 pg/mL
IFNg absolute level (primary monocytes; control 0.81): 1.13 pg/mL
IL-5 absolute level (primary monocytes; control 0.87): <0.33↓ pg/ml
IL-4 absolute level (primary monocytes; control 1.25): 1.44 pg/mL
IL-18 absolute level (primary monocytes; control 1.81): 2.95 pg/mL
TNFb absolute level (primary monocytes; control 1.89): 1.49 pg/mL
IL-12 (p40) absolute level (primary monocytes; control 2.8): 2.8 pg/mL
IL-15 absolute level (primary monocytes; control 4.96): 4.19 pg/mL
IL-9 absolute level (primary monocytes; control 5.17): 3.78 pg/mL
IL-1a absolute level (primary monocytes; control 5.33): 7.2 pg/mL
IL-10 absolute level (primary monocytes; control 6.18): 6.66 pg/mL
G-CSF absolute level (primary monocytes; control 10.38): 6.59 pg/mL
IL-13 absolute level (primary monocytes; control 10.99): 5.29 pg/mL
IL-1b absolute level (primary monocytes; control 12.11): 12.11 pg/mL
EGF absolute level (primary monocytes; control 12.18): 14.11 pg/mL
IFNa2 absolute level (primary monocytes; control 13.22): 18.46 pg/mL
IL-6 absolute level (primary monocytes; control 27.82): 26.88 pg/mL
MIP-1a absolute level (primary monocytes; control 29.35): 27.88 pg/mL
MIP-1b absolute level (primary monocytes; control 29.57): 34.19 pg/mL
PDGF-AA absolute level (primary monocytes; control 35.56): 43.29 pg/mL
Fractalkine absolute level (primary monocytes; control 41.58): 32.26 pg/mL
FGF-2 absolute level (primary monocytes; control 45.68): 71.22 pg/mL
VEGFa absolute level (primary monocytes; control 54.1): 52.47 pg/mL
TNFa absolute level (primary monocytes; control 77.73): 79.94 pg/mL
MCP-1 absolute level (primary monocytes; control 82.06): 75.95 pg/mL
MCP-3 absolute level (primary monocytes; control 120.38): 119.63 pg/mL
IL-27 absolute level (primary monocytes; control 121.25): 94.48 pg/mL
RANTES absolute level (primary monocytes; control 184.29): 402.83 pg/mL
IL-1RA absolute level (primary monocytes; control 204.3): 204.3 pg/mL
IP-10 absolute level (primary monocytes; control 290.24): 390.23 pg/mL
GROa absolute level (primary monocytes; control 342.86): 261.06 pg/mL
MDC absolute level (primary monocytes; control 879.89): 759.82 pg/mL
PDGF-AB/BB absolute level (primary monocytes; control 984.71): 1457 pg/mL
MIG absolute level (primary monocytes; control 1021): 1301 pg/mL
IL-8 absolute level (primary monocytes; control 9181): 6023 pg/mL
IL-7 absolute level (primary monocytes; control <0.32): <0.32↓ pg/ml
FLT-3L absolute level (primary monocytes; control <0.61): 0.69 pg/mL
IL-3 absolute level (primary monocytes; control <0.77): <0.77↓ pg/ml
IL-17A absolute level (primary monocytes; control <1.00): <1.00↓ pg/ml
GM-CSF absolute level (primary monocytes; control <1.30): <1.30↓ pg/ml
IL-12 (p70) absolute level (primary monocytes; control <1.79): <1.79↓ pg/ml
Eotaxin absolute level (primary monocytes; control <3.80): <3.80↓ pg/ml
IL-22 absolute level (primary monocytes; control <9.00): <9.00↓ pg/ml
IL-17F absolute level (primary monocytes; control <16.98): <16.98↓ pg/ml
M-GSF absolute level (primary monocytes; control <23.97): <23.97↓ pg/ml
IL-17E/IL-25 absolute level (primary monocytes; control <25.82): <25.82↓ pg/ml
sCD40L absolute level (primary monocytes; two biological replications, untreated control 151.36): 151.36 pg/mL
Cell viability (PBMCs; peptide 50 µM, twice in duplicate): approximately 90%
Cell viability (PBMCs; peptide 180 μM): more than 50%
Cytotoxic effect against the tested immune and epithelial cells (PBMCs; peptide 12.5 µM, PBMCs and Caco-2): did not exhibit a cytotoxic effect
